Laboratory results reported in ChEMBL document CHEMBL1201862, “PubChem BioAssay data set” (2004).
Activity calls are given as the source filed them.

Tests used:
[1] = biological target: T1, Tyrosine-protein phosphatase non-receptor type 7 (Homo sapiens, UniProt P35236); assay: SAR analysis of chemical inhibitors of HePTP using a Fluorescent assay - Set 2. [Related pubchem assays (depositor defined):AID1059, AID1077, AID1661, AID2085, AID521]; type: functional
T1 sequence (P35236 whole entry): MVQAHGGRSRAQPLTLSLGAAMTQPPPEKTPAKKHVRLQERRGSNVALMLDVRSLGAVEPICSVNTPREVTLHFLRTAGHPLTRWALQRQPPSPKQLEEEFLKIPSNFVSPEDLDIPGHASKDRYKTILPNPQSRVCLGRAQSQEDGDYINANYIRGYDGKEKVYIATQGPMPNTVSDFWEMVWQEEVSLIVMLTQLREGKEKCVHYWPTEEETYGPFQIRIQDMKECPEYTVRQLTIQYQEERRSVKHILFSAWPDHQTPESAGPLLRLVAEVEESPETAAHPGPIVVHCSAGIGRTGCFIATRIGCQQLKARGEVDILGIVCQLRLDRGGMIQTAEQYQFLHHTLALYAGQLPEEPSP

[2] = biological target: T2, Dual specificity protein phosphatase 3 (Homo sapiens, UniProt P51452); assay: SAR VHR1 Fluorescent Assay for In Vitro dose response studies Set 2. [Related pubchem assays (depositor defined):AID1654, AID1661, AID1878]; type: functional
T2 sequence (P51452 whole entry): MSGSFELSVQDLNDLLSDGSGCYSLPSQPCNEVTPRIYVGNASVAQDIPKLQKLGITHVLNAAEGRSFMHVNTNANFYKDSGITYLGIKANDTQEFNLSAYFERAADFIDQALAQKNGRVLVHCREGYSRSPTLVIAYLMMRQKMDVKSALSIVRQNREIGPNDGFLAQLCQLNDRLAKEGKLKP

[3] = biological target: Acyl-homoserine lactone acylase PvdQ (Pseudomonas aeruginosa (strain LESB58), UniProt Q9I194); assay: PvdQ acylase enzyme activity blockers – biochemical, fluorescence, plate reader and imaging, cherry-picks, dose response (AID 493231)
Acyl-homoserine lactone acylase PvdQ, sequence (Q9I194 24-193 limits assumed): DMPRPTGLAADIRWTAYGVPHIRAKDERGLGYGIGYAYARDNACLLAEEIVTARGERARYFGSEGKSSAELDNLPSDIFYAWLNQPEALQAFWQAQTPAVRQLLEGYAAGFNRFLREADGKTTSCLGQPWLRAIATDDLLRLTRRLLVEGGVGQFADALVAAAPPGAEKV
Acyl-homoserine lactone acylase PvdQ, sequence (Q9I194 217-762 limits assumed): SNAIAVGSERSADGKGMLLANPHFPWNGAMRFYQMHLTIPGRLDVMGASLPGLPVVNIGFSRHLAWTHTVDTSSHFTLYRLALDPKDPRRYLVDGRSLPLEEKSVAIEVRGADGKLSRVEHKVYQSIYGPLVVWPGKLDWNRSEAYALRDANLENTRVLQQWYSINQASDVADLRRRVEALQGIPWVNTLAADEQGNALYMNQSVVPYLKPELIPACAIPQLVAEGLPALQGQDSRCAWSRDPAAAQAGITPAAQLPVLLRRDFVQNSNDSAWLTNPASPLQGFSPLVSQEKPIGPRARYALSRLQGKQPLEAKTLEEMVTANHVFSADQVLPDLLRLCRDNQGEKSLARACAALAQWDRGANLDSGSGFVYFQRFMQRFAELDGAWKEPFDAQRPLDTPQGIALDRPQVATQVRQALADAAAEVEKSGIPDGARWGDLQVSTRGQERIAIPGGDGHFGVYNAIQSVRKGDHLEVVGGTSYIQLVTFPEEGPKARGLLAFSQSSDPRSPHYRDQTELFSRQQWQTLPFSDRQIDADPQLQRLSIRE

[4] = biological target: T2, Dual specificity protein phosphatase 3; assay: inhibition constants for human DUSP3 – biochemical, colorimetric, SAR follow-up (AID 2004)
[5] = test system: Trypanosoma cruzi; assay: anti-trypanosomal activity in host cells – cell-based, plate reader, dry powder, set 3, dose response (AID 493197); type: functional
[6] = biological target: Cyclin-dependent kinase 5/CDK5 activator 1 (Homo sapiens, UniProt Q00535); assay: blockade of human CDK5 activity – biochemical, cherry-picked samples, set 2, dose response (AID 504545)
[7] = test system: HEK293; assay: cells; type: functional, cell-based; details: Homo sapiens
[8] = test system: HEK293; assay: cells; type: functional, cell-based; details: Homo sapiens; remark: listed apart in the source
[9] = test system: HEK293; assay: cells; type: functional, cell-based; details: Homo sapiens; remark: listed apart in the source
[10] = biological target: Scavenger receptor class B member 1 (Mus musculus, UniProt Q61009); assay: mouse SR-BI DiI-HDL uptake blockers – ldlA[mSR-BI] cells, fluorescence, cherry pick, dose response (AID 493194); type: functional, cell-based;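 further: cellular uptake of fluorescent DiI-labeled HDL measured as cell fluorescence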
Scavenger receptor class B member 1, sequence (Q61009 whole entry): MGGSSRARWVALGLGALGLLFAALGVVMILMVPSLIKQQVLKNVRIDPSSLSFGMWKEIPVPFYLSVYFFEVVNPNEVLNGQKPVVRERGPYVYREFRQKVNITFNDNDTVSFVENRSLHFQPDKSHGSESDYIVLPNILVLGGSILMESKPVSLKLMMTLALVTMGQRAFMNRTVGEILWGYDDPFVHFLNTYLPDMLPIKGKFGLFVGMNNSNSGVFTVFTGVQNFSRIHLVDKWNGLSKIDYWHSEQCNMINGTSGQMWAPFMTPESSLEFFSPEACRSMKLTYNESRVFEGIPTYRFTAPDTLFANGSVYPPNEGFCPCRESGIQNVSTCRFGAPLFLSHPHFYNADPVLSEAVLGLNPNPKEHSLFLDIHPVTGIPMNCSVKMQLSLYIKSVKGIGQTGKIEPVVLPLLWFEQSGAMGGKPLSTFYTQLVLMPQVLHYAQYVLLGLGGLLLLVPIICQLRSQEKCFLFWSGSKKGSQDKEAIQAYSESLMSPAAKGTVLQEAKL

[11] = test system: HEK293; assay: inhibition of NOD1-driven NF-kB reporter – cell-based, luminescence, uHTS, primary screen (AID 1578); type: functional; details: Homo sapiens
[12] = test system: HEK293; assay: NOD2 signaling inhibitors in MDP-stimulated cells, cell-based, uHTS, luminescence (AID 2001); type: functional; details: Homo sapiens
[13] = test system: INS1; assay: INS-1E survival protection against cytokine death – cell-based, luminescence, retest, dose response (AID 449756); type: functional; details: Rattus norvegicus;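 further: cell death triggered by IL-1 beta plus TNF-alpha plus IFN-gamma mixture; protective hits raise ATP signal compared with cytokine alone wells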
[14] = biological target: Nucleotide-binding oligomerization domain-containing protein 2 (Homo sapiens, UniProt Q9HC29); assay: inhibition of NOD2-driven NF-kB reporter – cell-based, luminescence, uHTS, HEK293 (AID 1566); type: functional
[15] = biological target: Paired box protein Pax-8 (Homo sapiens, UniProt Q06710); assay: PAX8 transcriptional activity inhibition in RMG-I – RMG-I cells, luciferase, cherry-pick, dose response (AID 687027); type: functional, cell-based;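 further: luciferase reporter driven by Pax8 target thyroperoxidase promoter measured by SteadyGlo luminescence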
Paired box protein Pax-8, sequence (Q06710 whole entry): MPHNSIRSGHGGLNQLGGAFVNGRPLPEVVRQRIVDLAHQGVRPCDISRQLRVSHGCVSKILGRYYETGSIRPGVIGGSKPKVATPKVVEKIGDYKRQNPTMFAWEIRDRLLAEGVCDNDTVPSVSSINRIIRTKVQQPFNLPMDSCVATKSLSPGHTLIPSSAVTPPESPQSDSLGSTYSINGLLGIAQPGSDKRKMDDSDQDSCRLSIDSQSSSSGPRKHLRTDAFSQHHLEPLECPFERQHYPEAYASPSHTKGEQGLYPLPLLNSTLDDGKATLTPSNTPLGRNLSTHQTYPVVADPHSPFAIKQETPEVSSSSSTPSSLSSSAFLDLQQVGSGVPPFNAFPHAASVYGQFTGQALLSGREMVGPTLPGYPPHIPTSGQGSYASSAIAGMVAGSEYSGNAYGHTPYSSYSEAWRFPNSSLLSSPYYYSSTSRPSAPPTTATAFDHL

[16] = biological target: Intestinal-type alkaline phosphatase (Homo sapiens, UniProt P09923); assay: Dose Response confirmation of uHTS hits from a small molecule inhibitors of human intestinal alkaline phosphatase via a luminescent assay. [Related pubchem assays (depositor defined):AID2544, AID2574]; type: functional
Intestinal-type alkaline phosphatase, sequence (P09923 whole entry): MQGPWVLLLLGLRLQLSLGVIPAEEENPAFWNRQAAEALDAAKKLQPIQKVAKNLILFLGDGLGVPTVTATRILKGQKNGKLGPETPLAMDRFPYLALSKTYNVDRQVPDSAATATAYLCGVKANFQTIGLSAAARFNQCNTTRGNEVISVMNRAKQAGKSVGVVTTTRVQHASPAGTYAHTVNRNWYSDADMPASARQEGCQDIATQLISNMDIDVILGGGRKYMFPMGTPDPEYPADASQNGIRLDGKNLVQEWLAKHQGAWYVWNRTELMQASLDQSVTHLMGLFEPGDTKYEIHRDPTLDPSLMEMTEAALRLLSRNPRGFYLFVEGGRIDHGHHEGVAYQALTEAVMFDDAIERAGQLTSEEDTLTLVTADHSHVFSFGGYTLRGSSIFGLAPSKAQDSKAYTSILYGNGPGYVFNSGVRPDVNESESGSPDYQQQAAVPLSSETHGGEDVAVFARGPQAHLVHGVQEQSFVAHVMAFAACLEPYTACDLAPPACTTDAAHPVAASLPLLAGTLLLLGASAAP

[17] = luciferase reporter signal suppression in cells – H4 neuroglioma cells, luminescence, dose response (AID 1990); type: functional, cell-based
[18] = biological target: Voltage-dependent T-type calcium channel subunit alpha-1H (Homo sapiens, UniProt O95180); type: functional;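 further: channel activity triggered by adding a high calcium stimulation buffer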
[19] = alpha-synuclein stem-loop luciferase translation blockers – H4 neuroglioma cells, luminescence, confirmation (AID 1988); type: functional, cell-based
[20] = Luminescence Cell-Based Dose Response HTS to Identify Activators of 5'UTR Stem-Loop Driven Prion Protein mRNA Translation in H4-C Neuroglioblastoma Cells. [Related pubchem assays: 1829 (Project Summary), 1814 (Primary HTS)]; type: functional
[21] = Luminescence Cell-Based Dose Confirmation HTS to Identify Activators of 5'UTR Stem-Loop Driven Alpha-Synuclein mRNA Translation in H4 Neuroglioblastoma Cells. [Related pubchem assays: 1829 (Project Summary), 1814 (Primary HTS)]; type: functional
[22] = Luminescence Cell-Based Dose Response HTS to Identify Activators of Luciferase Translation or Activity in H4 […] Cells. [Related pubchem assays: 1829 (Project Summary), 1814 (Primary HTS)]; type: functional
[23] = Luminescence Cell-Based Dose Retest to Confirm Activators of 5'UTR Stem-Loop Driven Alpha-Synuclein mRNA Translation in H4 Neuroglioblastoma Cells. [Related pubchem assays (depositor defined):AID1813, AID1829]; type: functional
[24] = test system: H4; assay: Luminescence Cell-Based Dose Response HTS to Identify Activators of 5'UTR Stem-Loop Driven Prion Protein mRNA Translation in H4 Neuroglioblastoma Cells. [Related pubchem assays: 1829 (Project Summary), 1814 (Primary HTS)]; type: functional; details: Homo sapiens
[25] = Luminescence Cell-Based Dose Response HTS to Identify Activators of Luciferase Translation or Activity in H4-C Neuroglioblastoma Cells. [Related pubchem assays: 1829 (Project Summary), 1814 (Primary HTS)]; type: functional
[26] = biological target: Kappa-type opioid receptor (Homo sapiens, UniProt P41145); assay: SAR analysis of small molecule agonists of the kappa opioid receptor via a luminescent beta-arrestin assay - Set 2. [Related pubchem assays (depositor defined):AID1777, AID1785, AID1786, AID1966, AID2133, AID2136, AID2284, AID449737]; type: functional
Kappa-type opioid receptor, sequence (P41145 whole entry): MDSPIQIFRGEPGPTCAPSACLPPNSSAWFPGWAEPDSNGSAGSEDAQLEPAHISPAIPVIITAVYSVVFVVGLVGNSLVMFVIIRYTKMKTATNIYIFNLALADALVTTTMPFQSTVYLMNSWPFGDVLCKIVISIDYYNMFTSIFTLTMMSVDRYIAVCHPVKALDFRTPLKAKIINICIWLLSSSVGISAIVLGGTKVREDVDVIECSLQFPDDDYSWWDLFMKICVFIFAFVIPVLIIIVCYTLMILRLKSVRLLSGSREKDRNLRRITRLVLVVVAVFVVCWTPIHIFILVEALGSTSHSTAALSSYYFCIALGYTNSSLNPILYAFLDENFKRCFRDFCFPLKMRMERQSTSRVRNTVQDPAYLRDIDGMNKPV

[27] = biological target: Melanin-concentrating hormone receptor 1 (Homo sapiens, UniProt Q99705); assay: Late-stage fluorescence-based counterscreen for antagonists of the G-protein coupled receptor 7 (GPR7): cell-based dose response assay to identify antagonists of the melanin-concentrating hormone receptor 1 (MCHR1). [Related pubchem assays (depositor defined):AID1861, AID1880, AID1952, AID2148, AID2251, AID2257, AID485339]; type: functional;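 further: stimulated with 30 nM MCH peptide agonist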
[28] = biological target: T3, Neuropeptides B/W receptor type 1 (Homo sapiens, UniProt P48145); assay: human NPBW1 receptor blockade, IC50 – cell-based, fluorescence, dose response, late-stage follow-up (AID 463251); type: functional
T3 sequence (P48145 whole entry): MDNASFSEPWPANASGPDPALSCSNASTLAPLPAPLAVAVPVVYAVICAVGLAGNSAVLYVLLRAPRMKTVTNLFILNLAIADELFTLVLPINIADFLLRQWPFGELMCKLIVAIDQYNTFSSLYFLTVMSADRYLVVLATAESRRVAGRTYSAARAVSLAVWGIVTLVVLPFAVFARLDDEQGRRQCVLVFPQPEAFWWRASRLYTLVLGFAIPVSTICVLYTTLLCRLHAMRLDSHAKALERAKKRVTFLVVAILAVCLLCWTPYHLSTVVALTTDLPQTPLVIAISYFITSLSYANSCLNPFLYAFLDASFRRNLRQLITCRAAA

[29] = biological target: Neutrophil collagenase (Homo sapiens, UniProt P22894); assay: potency against MMP13, MMP2, MMP3, MMP14 – biochemical, probe development, late stage results, selectivity assay for MMP13 inhibitor project, late-stage follow-up, panel member MMP-8 [IC50 Assay] (AID 2067)
Neutrophil collagenase, sequence (P22894 whole entry): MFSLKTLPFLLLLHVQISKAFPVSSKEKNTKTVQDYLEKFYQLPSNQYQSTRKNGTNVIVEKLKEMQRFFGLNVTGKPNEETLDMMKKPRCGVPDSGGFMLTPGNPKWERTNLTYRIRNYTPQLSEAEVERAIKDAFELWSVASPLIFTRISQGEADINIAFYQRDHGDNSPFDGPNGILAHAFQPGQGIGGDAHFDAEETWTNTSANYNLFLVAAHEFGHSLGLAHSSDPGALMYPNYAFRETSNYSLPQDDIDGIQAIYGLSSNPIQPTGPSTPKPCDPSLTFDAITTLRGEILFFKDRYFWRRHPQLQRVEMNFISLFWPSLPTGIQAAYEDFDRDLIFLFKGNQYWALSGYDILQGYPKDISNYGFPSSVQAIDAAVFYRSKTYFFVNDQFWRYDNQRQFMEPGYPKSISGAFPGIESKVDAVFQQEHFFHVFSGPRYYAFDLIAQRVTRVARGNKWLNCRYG

[30] = biological target: Collagenase 3 (Homo sapiens, UniProt P45452); assay: potency against MMP13, MMP2, MMP3, MMP14 – biochemical, probe development, late stage results, selectivity assay for MMP13 inhibitor project, late-stage follow-up, panel member MMP-13 [IC50 Assay] (AID 2067)
[31] = biological target: Genome polyprotein (dengue virus type 2, UniProt P29990); assay: flavivirus cap methylation enzyme inhibition – biochemical, confirmation dose response, primary screen (AID 588689); type: functional
Genome polyprotein, sequence (P29990 2492-3391 limits assumed): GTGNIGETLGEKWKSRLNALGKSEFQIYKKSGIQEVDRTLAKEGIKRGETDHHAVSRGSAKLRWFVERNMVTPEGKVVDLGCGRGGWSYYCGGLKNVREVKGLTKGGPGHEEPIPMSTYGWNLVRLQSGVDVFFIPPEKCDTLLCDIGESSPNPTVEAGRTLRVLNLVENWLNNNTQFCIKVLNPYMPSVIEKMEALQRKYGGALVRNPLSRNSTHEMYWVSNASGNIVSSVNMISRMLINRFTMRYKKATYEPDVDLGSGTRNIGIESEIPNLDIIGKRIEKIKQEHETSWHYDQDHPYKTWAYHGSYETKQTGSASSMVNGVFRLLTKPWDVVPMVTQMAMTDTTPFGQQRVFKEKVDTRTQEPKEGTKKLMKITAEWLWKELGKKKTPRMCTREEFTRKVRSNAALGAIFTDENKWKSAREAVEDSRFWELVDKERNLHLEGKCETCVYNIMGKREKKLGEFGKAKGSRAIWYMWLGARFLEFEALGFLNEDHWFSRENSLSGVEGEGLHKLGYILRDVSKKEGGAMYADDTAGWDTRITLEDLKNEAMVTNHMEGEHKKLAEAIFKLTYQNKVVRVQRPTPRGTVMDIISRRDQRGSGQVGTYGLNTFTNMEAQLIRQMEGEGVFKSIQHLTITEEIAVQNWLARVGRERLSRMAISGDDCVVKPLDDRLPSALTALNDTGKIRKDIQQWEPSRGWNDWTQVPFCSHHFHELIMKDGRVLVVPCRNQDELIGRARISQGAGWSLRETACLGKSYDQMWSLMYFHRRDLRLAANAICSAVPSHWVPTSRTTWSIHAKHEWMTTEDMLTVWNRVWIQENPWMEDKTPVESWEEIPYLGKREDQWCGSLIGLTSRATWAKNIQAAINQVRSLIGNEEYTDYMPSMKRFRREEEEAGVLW

[32] = biological target: T1, Tyrosine-protein phosphatase non-receptor type 7; type: functional
[33] = biological target: Glyceraldehyde-3-phosphate dehydrogenase (Homo sapiens, UniProt P04406)
Glyceraldehyde-3-phosphate dehydrogenase, sequence (P04406 whole entry, the tested form may be a part): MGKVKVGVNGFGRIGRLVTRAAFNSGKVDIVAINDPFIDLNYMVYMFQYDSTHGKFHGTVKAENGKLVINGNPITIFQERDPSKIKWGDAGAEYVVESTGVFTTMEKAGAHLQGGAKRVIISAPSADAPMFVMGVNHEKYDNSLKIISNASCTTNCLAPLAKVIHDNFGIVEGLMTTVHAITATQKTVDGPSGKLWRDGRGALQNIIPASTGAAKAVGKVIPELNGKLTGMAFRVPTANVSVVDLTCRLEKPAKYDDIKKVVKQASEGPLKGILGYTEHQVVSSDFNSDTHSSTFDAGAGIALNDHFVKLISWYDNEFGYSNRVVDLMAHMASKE

[34] = biological target: T4, Carboxy-terminal domain RNA polymerase II polypeptide A small phosphatase 1 (Homo sapiens, UniProt Q9GZU7); assay: CTDSP1 inhibitors, concentration-response, biochemical, absorbance readout, ultra-high-throughput screen actives (AID 540297); type: functional
T4 sequence (Q9GZU7 whole entry): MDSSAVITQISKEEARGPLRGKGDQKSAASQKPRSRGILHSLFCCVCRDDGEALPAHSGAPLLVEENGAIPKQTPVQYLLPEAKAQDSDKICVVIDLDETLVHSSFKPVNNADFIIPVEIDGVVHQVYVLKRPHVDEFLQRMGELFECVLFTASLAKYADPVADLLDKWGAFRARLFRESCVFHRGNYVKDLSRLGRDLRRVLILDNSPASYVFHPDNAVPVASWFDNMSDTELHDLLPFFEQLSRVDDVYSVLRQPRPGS

[35] = biological target: Induced myeloid leukemia cell differentiation protein Mcl-1 (Homo sapiens, UniProt Q07820); type: functional
Induced myeloid leukemia cell differentiation protein Mcl-1, sequence (Q07820 whole entry): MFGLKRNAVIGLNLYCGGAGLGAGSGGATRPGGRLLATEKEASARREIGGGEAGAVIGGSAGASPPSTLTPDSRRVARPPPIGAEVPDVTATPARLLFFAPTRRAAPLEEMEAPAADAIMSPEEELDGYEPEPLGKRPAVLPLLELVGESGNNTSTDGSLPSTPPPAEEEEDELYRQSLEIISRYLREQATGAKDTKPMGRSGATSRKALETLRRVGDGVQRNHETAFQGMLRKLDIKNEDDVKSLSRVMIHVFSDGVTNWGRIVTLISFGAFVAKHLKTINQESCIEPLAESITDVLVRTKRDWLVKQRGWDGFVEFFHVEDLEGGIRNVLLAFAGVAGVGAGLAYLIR

[36] = biological target: T5, Dual specificity protein phosphatase 6 (Rattus norvegicus, UniProt Q64346);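 further: in vitro confirmatory secondary MKP-3 assay designed to detect irreversible or slow-binding inhibitors; recombinant His-tagged rat MKP-3 acting on the substrate OMFP; inhibitor potency from reduced phosphatase rate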
T5 sequence (Q64346 whole entry): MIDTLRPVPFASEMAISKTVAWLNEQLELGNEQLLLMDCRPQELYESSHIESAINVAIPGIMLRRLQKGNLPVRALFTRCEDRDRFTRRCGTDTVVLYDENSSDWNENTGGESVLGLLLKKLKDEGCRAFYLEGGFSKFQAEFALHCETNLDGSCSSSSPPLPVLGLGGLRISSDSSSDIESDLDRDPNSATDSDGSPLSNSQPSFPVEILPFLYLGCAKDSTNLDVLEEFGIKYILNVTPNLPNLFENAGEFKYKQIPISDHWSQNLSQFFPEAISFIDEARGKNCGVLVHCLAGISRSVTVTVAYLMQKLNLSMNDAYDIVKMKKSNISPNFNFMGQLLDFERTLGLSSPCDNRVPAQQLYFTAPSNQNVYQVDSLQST

## CCOc1ccc(-n2c(N)c(C(=O)NCc3ccco3)sc2=S)cc1
[1]
  IC50: > 100 µM (inactive)
[2]
  IC50: > 100 µM (inactive)

## CC(C)N=C(NC#N)SCc1ccccc1F
[3]
  AC50: 10.8 µM (active)

## O=C(O)C(Cc1ccccc1)NC(=S)Nc1ccccc1 (stereo unspecified)
[4]
  Ki: 28.8 µM (inactive)

## CCNC(=O)C1(C)CCCN(Cc2cccc(Oc3ccccc3)c2)C1 (stereo unspecified)
[5]
  AC50: 45.6 µM (active)

## CCc1c(O)nc(N)nc1Nc1ccccc1Cl
[6]
  AC50: 7.32 µM (active)

## COc1ccc(NC(=O)c2c(Nc3ccccc3)sc(C(=O)c3ccc(F)cc3)c2N)cc1
[7]
  IC50: > 20 µM (inactive)
[8]
  IC50: > 20 µM (inactive)
[9]
  IC50: > 20 µM (inactive)
[10]
  AC50: 2.46 µM (active)
[11]
  EC50: > 20 µM (inactive)
[12]
  IC50: > 20 µM (inactive)
[13]
  AC50: 2.91 µM (active)
[14]
  EC50: > 20 µM (inactive)
[15]
  AC50: 1.69 µM (active)

## O=C(Cc1coc2ccc3ccccc3c12)NCc1ccccc1
[16]
  IC50: > 100 µM (inactive)

## Cc1ccc(Cn2nc(C)c(NC(=O)c3cc(-c4ccc5c(c4)OCO5)on3)c2C)cc1
[17]
  EC50: > 120 µM (not active)
[18]
  EC50: 30 µM (active)
[19]
  EC50: 14 µM (active)

## N#Cc1cc2c(nc1SCC(=O)Nc1ccc(Cl)cc1)C1CCN2CC1
[20]
  EC50: 20.1 µM (active)
[21]
  EC50: 5.38 µM (active)
[22]
  EC50: 27.9 µM (active)
[23]
  EC50: 2.86 µM (active)
[24]
  EC50: > 120 µM (not active)
[25]
  EC50: 2.33 µM (active)

## COC(=O)CN(Cc1cccs1)C(=O)c1cccnc1
[26]
  EC50: > 20 µM (inactive)

## Cc1ccc(-n2ccc(Cl)c(Cl)c2=O)cc1
[27]
  IC50: > 20 µM (inactive)
[28]
  IC50: > 20 µM (inactive)

## C#CCSc1nc2c(c(=O)[nH]1)CCC2
[29]
  IC50: > 39.8 µM (active)
[30]
  IC50: > 39.8 µM (inactive)

## Cc1ccc2c(c1Cl)NC(C(=O)O)C1CC(Sc3ccccc3[N+](=O)[O-])C(Cl)C21 (stereo unspecified)
[31]
  IC50: 76.9 µM (active)
[32]
  IC50: 13.7 µM (active)
[33]
  IC50: > 100 µM (not active)
[34]
  IC50: 2.97 µM (active)
[35]
  IC50: 2.96 µM (active)
[36]
  IC50: 42.6 µM (active)
